According to patent US8834921B2, “Sustained-release liposomal anesthetic compositions” (Pacira Pharmaceuticals, Inc., priority 1997, dated 2014):
Structures can show the parent of a compound that is named as a salt.

How the values were obtained:
mice = assay: Determination of maximum tolerated dose (MTD), subcutaneous test; format: in vivo; conditions: highest dose at which none of the animals experienced systemic toxicity
Excerpt: (§1) Male guinea pigs weighing 800-1000 grams (Harlan-Sprague-Dawley, San Diego, Calif.) were used for efficacy studies. Male guinea pigs (Harlan-Sprague-Dawley) weighing 400-600 grams were used for pharmacokinetic studies. The animals were housed, 1 per cage, in a temperature-controlled environment with alternating 12-hour periods of light and darkness and given unrestricted access to food and water. Prior to each study, animals were habituated to the environment for at least 7 days. Female CDI mice (Sprague-Dawley) weighing 22-28 grams were used for determination of maximum tolerated dose (MTD). All animals were maintained in accordance with guidelines of the Committee on Care and Use of Laboratory Animals of the Institute of Laboratory Animal Resources, National Research Council.
Determination of maximum tolerated dose (MTD) was done in mice using a subcutaneous test known in the art (R. H. de long et al., Anesthesiology 54:177-81, 1981). Groups of three mice each were given injections of either 780 or 980 mg per kg body weight of the above-described MVL formulation containing bupivacaine sulfate as two divided doses of 500 μl each (total 1.0 mL volume). The doses were administered in rapid sequence into each flank. Control groups of 3 mice each received one of the test doses as a single dose of 10, 20, 30 or 50 mg/kg body weight of unencapsulated bupivacaine hydrochloride. […]

in vivo = assay: in vivo; design: species or system guinea pigs; conditions: guinea pig; for half-life: t1/2 (hr)
Excerpt: as §1
The in vivo pharmacokinetics of the MVL formulations of bupivacaine and free bupivacaine hydrochloride were compared following a single 1 mL intracutaneous dose of the MVL formulation containing 1.0 percent (w/v) of bupivacaine, or a dose of 0.5 percent (w/v) of unencapsulated bupivacaine hydrochloride to a group of guinea pigs. […] For the animals that received free bupivacaine hydrochloride, samples were collected at 0 and 30 minutes, and 1, 3, 6 and 9 hours following injection, while the animals that received the MVL formulations of bupivacaine were sampled 0, 6, 12, 18, 24, 48, and 72 hours following injection. At each time point, 3 or more animals were first anesthetized with halothane and then exanguinated by cardiac puncture. Serum samples were obtained by centrifugation of clotted whole blood. Skin was collected around the injection site with 3 cm margins, together with a 2-3 mm layer of underlying subcutaneous tissue. The skin and serum samples were kept frozen at −20° C. until analysis.
The amount of total bupivacaine remaining in the injection site was obtained by mincing the tissue followed by in toto homogenization in water using a Polytron homogenizer (Brinkman, Littau, Switzerland). Bupivacaine was extracted from the homogenate and analyzed by HPLC using a previously published method (Le Guevello et al., J. Chromatography 622:284-290, 1993). Bupivacaine concentration in serum was determined by extraction followed by HPLC (Le Guevello et al., supra). Tetracaine spiked into each sample before extraction was used as an internal standard. The limit of detection of the assay was 20 ng/mL.
Pharmacokinetic data obtained from the samples were analyzed using a noncompartmental model (WinNonlin software, Scientific Consulting, Inc., Apex, N.C.). Parameters calculated were the drug amount remaining at the injection site, the area under the “amount vs. time” curve (AUC), and drug half-life (t1/2,). In addition to the AUC and half-life, peak concentration (Cmax) was also reported for serum bupivacaine pharmacokinetics.
One way analysis of variance (ANOVA) was used to separately determine dose dependency for the different drug formulations and route of administration (via MVL or free drug) as well as for comparison between formulations. Student-Newman-Keuls tests were used on all ANOVA analyses.

## CCCCN1CCCCC1C(=O)Nc1c(C)cccc1C (centres unmarked) [Bupivacaine hydrochloride]
mice
  maximum tolerated dose (MTD): about 20 mg/kg of body weight
In vivo
  AUC (mg * hr), Skin: 2.9 mg·h
  tolerability of the intracutaneous dose: unable to tolerate
In vivo; male
  AUC: 21200 ng·h/mL
  Cmax: 6500 ng/mL
  Peak Amount (mg), Skin: 3.8 mg
In vivo; male, Serum
  half-life: 2.1 h
In vivo; male, Skin
  half-life: 1.3 h
